According to patent US8946412B2 (priority 2009, dated 2015):
Structures can show the parent of a compound that is named as a salt. Where two headings read alike, the source gives them in different places.

Biological target: α7-subtype of nicotinic receptors (Rattus norvegicus, UniProt Q05941)
Assay: biochemical
Assay type: binding

Chain of α7-subtype of nicotinic receptors (Q05941 23-502): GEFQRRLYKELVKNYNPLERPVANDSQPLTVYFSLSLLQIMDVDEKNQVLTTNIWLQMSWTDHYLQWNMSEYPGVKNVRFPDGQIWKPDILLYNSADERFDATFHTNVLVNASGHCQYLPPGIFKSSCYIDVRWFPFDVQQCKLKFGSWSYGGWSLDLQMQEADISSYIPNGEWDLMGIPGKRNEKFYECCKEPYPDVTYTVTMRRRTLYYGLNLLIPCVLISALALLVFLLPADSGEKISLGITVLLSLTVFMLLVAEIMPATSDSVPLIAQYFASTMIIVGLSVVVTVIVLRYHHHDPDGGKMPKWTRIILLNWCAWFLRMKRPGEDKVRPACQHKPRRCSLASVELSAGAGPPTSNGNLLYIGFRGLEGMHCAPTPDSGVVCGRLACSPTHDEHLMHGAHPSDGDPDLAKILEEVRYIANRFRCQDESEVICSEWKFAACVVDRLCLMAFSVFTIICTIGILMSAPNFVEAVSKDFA

Row | SMILES | IC50 [µM] | IC50 (rat brain, concentration inhibiting specific binding of 3H-α-bungarotoxin by 50%, read-out: IC50 Inhibition of 3H-α-Bungarotoxine Binding) [µM]
1 | FCCn1cccc1-c1nnc(N2CCN3CCC2CC3)o1 [Compound 1, 2-(1,4-Diazabicyclo[3.2.2]nonan-4-yl)-5-[1-(2-fluoroethyl)pyrrol-2-yl]-1,3,4-oxadiazole fumaric acid salt] | 0.011 | –
2 | c1c[nH]c(-c2nnc(N3CCN4CCC3CC4)o2)c1 [Compound 3, 2-(1,4-Diazabicyclo[3.2.2]nonan-4-yl)-5-(1H-pyrrol-2-yl)-1,3,4-oxadiazole free base] | – | 0.017
